Measurements reported in patent publication US9663486B2, “Selectively substituted quinoline compounds” (EISAI R&D MANAGEMENT CO., LTD., priority 2013, dated 2017).

Biological target: T1, mouse TLR7 (Mus musculus, UniProt P58681)
T1 construct: tissue Jackson Labs; host or cells: live female BALB/c mice
T1 sequence (P58681 27-1050): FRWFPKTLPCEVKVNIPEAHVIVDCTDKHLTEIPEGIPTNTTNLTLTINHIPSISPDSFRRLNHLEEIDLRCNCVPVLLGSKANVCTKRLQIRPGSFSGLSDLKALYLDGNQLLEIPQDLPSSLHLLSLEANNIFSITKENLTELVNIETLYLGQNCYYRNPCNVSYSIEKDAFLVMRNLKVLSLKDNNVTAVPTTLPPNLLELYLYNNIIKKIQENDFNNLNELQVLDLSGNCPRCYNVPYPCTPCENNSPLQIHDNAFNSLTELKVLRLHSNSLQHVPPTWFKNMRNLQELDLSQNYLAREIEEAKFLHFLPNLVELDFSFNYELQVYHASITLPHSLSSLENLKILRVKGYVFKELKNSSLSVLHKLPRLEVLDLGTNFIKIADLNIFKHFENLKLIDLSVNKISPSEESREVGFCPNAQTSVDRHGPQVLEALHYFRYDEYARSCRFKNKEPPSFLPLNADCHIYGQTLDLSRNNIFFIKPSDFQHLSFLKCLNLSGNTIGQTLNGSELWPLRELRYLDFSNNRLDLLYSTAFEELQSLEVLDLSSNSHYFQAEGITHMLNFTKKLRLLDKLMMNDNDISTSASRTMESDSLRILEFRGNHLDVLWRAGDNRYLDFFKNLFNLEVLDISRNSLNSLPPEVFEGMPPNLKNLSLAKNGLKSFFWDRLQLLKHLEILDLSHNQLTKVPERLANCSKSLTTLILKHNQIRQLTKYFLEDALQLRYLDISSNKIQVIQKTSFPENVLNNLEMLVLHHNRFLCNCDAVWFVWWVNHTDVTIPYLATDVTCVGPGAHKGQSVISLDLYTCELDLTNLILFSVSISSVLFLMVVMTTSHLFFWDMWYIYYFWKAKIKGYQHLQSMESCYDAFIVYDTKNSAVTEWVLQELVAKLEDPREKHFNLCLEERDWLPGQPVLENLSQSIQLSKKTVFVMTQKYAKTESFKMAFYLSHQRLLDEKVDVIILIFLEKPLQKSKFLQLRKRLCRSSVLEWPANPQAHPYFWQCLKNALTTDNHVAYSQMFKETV
Assay: Short-term in vivo (STIV) assay, plasma IL-6 after R848
Conditions: plasma IL-6 after R848 s.c., BALB/c mice
Description: To assess compound potency in vivo against mouse TLR7, a short-term in vivo (STIV) assay was utilized. Briefly, mice were orally dosed with compounds and at various time points afterwards were injected subcutaneously with agonist R848 to stimulate TLR7. The plasma IL-6 level following R848 stimulation was then measured by ELISA to assess compound potency and duration-of-action. […] Therefore, the activity of compounds in the STIV assay can be confidently attributed to their modulation of the TLR7 pathway.
Six to eight week old female BALB/c mice (Jackson Labs, Bar Harbor, Me.) were dosed by oral gavage in 200 ul volume with antagonist compounds formulated in 0.5% aqueous methyl-cellulose (Sigma, St. Louis, Mo.). At various time points afterwards, mice were injected subcutaneously (s.c.) in 100 ul volume with 15 ug R848 (Resiquimod; GLSynthesis, Worcester, Mass.) to stimulate TLR7. Blood plasma was collected by cardiac puncture, and levels of IL-6 at 1.5 hours after TLR7 stimulation were then assessed by standard ELISA procedure according to the manufacturer's recommended protocol (R&D Systems).

For C[C@H]1C[C@@H](N)CN(c2ccc(C#N)c3ncccc23)C1 [ER-888840, 5-((3R,5S)-3-amino-5-methylpiperidin-1-yl)quinoline-8-carbonitrile], which “% Suppression vs. Vehicle” value (6 h after oral dose, 33 mg/kg) is on record?
Its value is 100%.

What about the “% Suppression vs. Vehicle” value (13 hr after oral dose, 11 mg/kg) of the same compound?
The value was 53%.

What about the “% Suppression vs. Vehicle” value (13 hr after oral dose, 33 mg/kg) of the same compound?
The value was 95%.

And the “% Suppression vs. Vehicle” value (13 hr after oral dose, 100 mg/kg)?
Its value is 100%.

What about the “% Suppression vs. Vehicle” value (24 hr after oral dose, 11 mg/kg) of the same compound?
Its value is 24%.

And the “% Suppression vs. Vehicle” value (24 hr after oral dose, 33 mg/kg)?
Its value is 0%.

And the “% Suppression vs. Vehicle” value (24 hr after oral dose, 100 mg/kg)?
The value was 98%.

And the “% Suppression vs. Vehicle” value (24 hr after oral dose, 300 mg/kg)?
The value was 100%.
